Test results as given in PubChem BioAssay (NCI).
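Here, GI50 denotes the concentration required for 50% inhibition of growth. The concentration for full growth arrest is given as TGI.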

Assays:
Assay in all cases: growth of human tumour cells (NCI), 384-well format
[1] = tested on: 786-0 renal
[2] = tested on: A498 renal
[3] = tested on: A549 NSCLC
[4] = tested on: ACHN renal
[5] = tested on: CAKI-1 renal
[6] = tested on: COLO 205 colon
[7] = tested on: DU-145 prostate
[8] = tested on: EKVX NSCLC
[9] = tested on: HCT-116 colon
[10] = tested on: HCT-15 colon
[11] = tested on: HL-60(TB) leukemia
[12] = tested on: HOP-62 NSCLC
[13] = tested on: HOP-92 NSCLC
[14] = tested on: HS 578T breast
[15] = tested on: HT29 colon
[16] = tested on: IGROV1 ovarian
[17] = tested on: K-562 leukemia
[18] = tested on: KM12 colon
[19] = tested on: M14 melanoma
[20] = tested on: MALME-3M melanoma
[21] = tested on: MCF7 breast
[22] = tested on: MDA-MB-231 breast
[23] = tested on: MDA-MB-435 melanoma
[24] = tested on: MDA-MB-468 breast
[25] = tested on: MOLT-4 leukemia
[26] = tested on: NCI-H226 lung
[27] = tested on: NCI-H23 lung
[28] = tested on: NCI-H322M lung
[29] = tested on: NCI-H460 NSCLC
[30] = tested on: NCI-H522 lung
[31] = tested on: OVCAR-3 ovarian
[32] = tested on: OVCAR-4 ovarian
[33] = tested on: OVCAR-5 ovarian
[34] = tested on: OVCAR-8 ovarian
[35] = tested on: PC-3 prostate
[36] = tested on: RXF 393 renal
[37] = tested on: SF-268 CNS
[38] = tested on: SF-295 CNS
[39] = tested on: SF-539 CNS
[40] = tested on: SK-MEL-2 melanoma
[41] = tested on: SK-MEL-28 melanoma
[42] = tested on: SK-MEL-5 melanoma
[43] = tested on: SK-OV-3 ovarian
[44] = tested on: SN12C renal
[45] = tested on: SNB-19 CNS
[46] = tested on: SNB-75 CNS
[47] = tested on: SR leukemia
[48] = tested on: SW-620 colon
[49] = tested on: T-47D breast
[50] = tested on: TK-10 renal
[51] = tested on: U251 glioblastoma
[52] = tested on: UACC-257 melanoma
[53] = tested on: UACC-62 melanoma
[54] = tested on: UO-31 renal

Q: How did the GI50 [1] turn out when `C[C@@H](COCCC(=O)N1CCN(c2ncc(C(F)(F)F)cn2)CC1)Nc1cn[nH]c(=O)c1C(F)(F)F` was run?
A: 41.5 µM

Q: And the TGI [1]?
A: > 100 µM

Q: What about the GI50 [2] of the same molecule?
A: > 100 µM

Q: What about the TGI [2] of the same molecule?
A: > 100 µM

Q: What about the GI50 [3] of the same molecule?
A: 41 µM

Q: And the TGI [3]?
A: > 100 µM

Q: And the GI50 [4]?
A: 24 µM

Q: What about the TGI [4] of the same molecule?
A: > 100 µM

Q: What about the GI50 [5] of the same molecule?
A: 25.7 µM

Q: And the TGI [5]?
A: > 100 µM

Q: And the GI50 [6]?
A: > 100 µM

Q: And the TGI [6]?
A: > 100 µM

Q: What about the GI50 [7] of the same molecule?
A: 12.7 µM

Q: And the TGI [7]?
A: > 100 µM

Q: What about the GI50 [8] of the same molecule?
A: 63.6 µM

Q: What about the TGI [8] of the same molecule?
A: > 100 µM

Q: What about the GI50 [9] of the same molecule?
A: 8.64 µM

Q: And the TGI [9]?
A: > 100 µM

Q: What about the GI50 [10] of the same molecule?
A: 77.9 µM

Q: What about the TGI [10] of the same molecule?
A: > 100 µM

Q: What about the GI50 [11] of the same molecule?
A: 2.49 µM

Q: And the TGI [11]?
A: 16 µM

Q: And the GI50 [12]?
A: 4.01 µM

Q: What about the TGI [12] of the same molecule?
A: 22.5 µM

Q: And the GI50 [13]?
A: 41.2 µM

Q: And the TGI [13]?
A: > 100 µM

Q: What about the GI50 [14] of the same molecule?
A: 1.09 µM

Q: And the TGI [14]?
A: > 100 µM

Q: And the GI50 [15]?
A: > 100 µM

Q: And the TGI [15]?
A: > 100 µM

Q: And the GI50 [16]?
A: 69.1 µM

Q: And the TGI [16]?
A: > 100 µM

Q: What about the GI50 [17] of the same molecule?
A: 10 µM

Q: What about the TGI [17] of the same molecule?
A: > 100 µM

Q: And the GI50 [18]?
A: 3.66 µM

Q: What about the TGI [18] of the same molecule?
A: 82.7 µM

Q: What about the GI50 [19] of the same molecule?
A: 46.8 µM

Q: What about the TGI [19] of the same molecule?
A: > 100 µM

Q: What about the GI50 [20] of the same molecule?
A: > 100 µM

Q: What about the TGI [20] of the same molecule?
A: > 100 µM

Q: What about the GI50 [21] of the same molecule?
A: 14.5 µM

Q: What about the TGI [21] of the same molecule?
A: > 100 µM

Q: What about the GI50 [22] of the same molecule?
A: > 100 µM

Q: And the TGI [22]?
A: > 100 µM

Q: What about the GI50 [23] of the same molecule?
A: > 100 µM

Q: And the TGI [23]?
A: > 100 µM

Q: And the GI50 [24]?
A: 3.72 µM

Q: And the TGI [24]?
A: 23.5 µM

Q: What about the GI50 [25] of the same molecule?
A: 1.53 µM

Q: What about the TGI [25] of the same molecule?
A: 2.97 µM

Q: What about the GI50 [26] of the same molecule?
A: 18.6 µM

Q: What about the TGI [26] of the same molecule?
A: > 100 µM

Q: And the GI50 [27]?
A: 9.26 µM

Q: What about the TGI [27] of the same molecule?
A: 52.1 µM

Q: And the GI50 [28]?
A: > 100 µM

Q: What about the TGI [28] of the same molecule?
A: > 100 µM

Q: What about the GI50 [29] of the same molecule?
A: 16.1 µM

Q: What about the TGI [29] of the same molecule?
A: > 100 µM

Q: And the GI50 [30]?
A: 31.8 µM

Q: And the TGI [30]?
A: > 100 µM

Q: What about the GI50 [31] of the same molecule?
A: 35.5 µM

Q: And the TGI [31]?
A: > 100 µM

Q: What about the GI50 [32] of the same molecule?
A: > 100 µM

Q: What about the TGI [32] of the same molecule?
A: > 100 µM

Q: And the GI50 [33]?
A: > 100 µM

Q: What about the TGI [33] of the same molecule?
A: > 100 µM

Q: And the GI50 [34]?
A: 14.7 µM

Q: What about the TGI [34] of the same molecule?
A: > 100 µM

Q: What about the GI50 [35] of the same molecule?
A: 62.5 µM

Q: What about the TGI [35] of the same molecule?
A: > 100 µM

Q: What about the TGI [36] of the same molecule?
A: 20.3 µM

Q: And the GI50 [37]?
A: 10.1 µM

Q: And the TGI [37]?
A: 73.1 µM

Q: What about the GI50 [38] of the same molecule?
A: 6.19 µM

Q: And the TGI [38]?
A: 33.9 µM

Q: What about the GI50 [39] of the same molecule?
A: 3.28 µM

Q: What about the TGI [39] of the same molecule?
A: 27.4 µM

Q: What about the GI50 [40] of the same molecule?
A: > 100 µM

Q: And the TGI [40]?
A: > 100 µM

Q: And the GI50 [41]?
A: > 100 µM

Q: What about the TGI [41] of the same molecule?
A: > 100 µM

Q: What about the GI50 [42] of the same molecule?
A: 48.5 µM

Q: What about the TGI [42] of the same molecule?
A: > 100 µM

Q: And the GI50 [43]?
A: 13.9 µM

Q: What about the TGI [43] of the same molecule?
A: 79.8 µM

Q: What about the GI50 [44] of the same molecule?
A: 5.17 µM

Q: What about the TGI [44] of the same molecule?
A: 51.9 µM

Q: And the GI50 [45]?
A: 48 µM

Q: And the TGI [45]?
A: > 100 µM

Q: What about the GI50 [46] of the same molecule?
A: 12.4 µM

Q: What about the TGI [46] of the same molecule?
A: > 100 µM

Q: And the GI50 [47]?
A: 1.31 µM

Q: What about the TGI [47] of the same molecule?
A: 2.67 µM

Q: And the GI50 [48]?
A: 0.187 µM

Q: What about the TGI [48] of the same molecule?
A: > 100 µM

Q: And the GI50 [49]?
A: 24.2 µM

Q: And the TGI [49]?
A: > 100 µM

Q: And the GI50 [50]?
A: > 100 µM

Q: And the TGI [50]?
A: > 100 µM

Q: And the GI50 [51]?
A: 11.6 µM

Q: What about the TGI [51] of the same molecule?
A: 73.7 µM

Q: And the GI50 [52]?
A: 60.4 µM

Q: And the TGI [52]?
A: > 100 µM

Q: And the GI50 [53]?
A: 32.3 µM

Q: What about the TGI [53] of the same molecule?
A: > 100 µM

Q: What about the GI50 [54] of the same molecule?
A: 22.4 µM

Q: What about the TGI [54] of the same molecule?
A: > 100 µM
